Data on two molecules can be found in publication PMC8389697, “Development and Characterization of a Novel Peptide—Drug Conjugate with DM1 for Treatment of FGFR2-Positive Tumors” (Biomedicines, 2021).

The subject of one series is MCF-7 cells. In words: Clone formation experiment. Conditions: MCF-7, 200 cells per well, 1 week, crystal violet; performed three times. The class given is cell-based, human. Here is the method: We seeded 200 cells per well in 6-well plates with culture medium. After 12 h, the cells were incubated with different agents for 1 week at 37 °C with 5% CO2. Then, we washed the wells with PBS, fixed the cells with methanol for 10 min and stained them with crystal violet at room temperature. Finally, we washed them with sterile water several times in order to obtain a clean background, and then, the colonies formed were photographed and statistically analyzed.

For series [1] the following is noted: once per week; no reference given; cited from earlier work. An excerpt: We investigated the antitumor efficacy of those two PDCs on xenografted mice in vivo.
Series [2] concerns the target T1, FGFR2 extracellular motif protein (UniProt P21802 22-377).
T1 construct: fibroblast growth factor receptor 2 (FGFR2), recombinant, 'extracellular motif protein'; No catalogue number is printed; limits, isoform (IIIb or IIIc) and tag of the bought protein are unknown; also called FGFR2 protein; recombinant proteins of the FGFR2; source: bought: Sino Biological
Description: ITC; ITC200, 25 °C, both dissolved in sterile water; 0.1 mM peptide in the sample cell, 0.001 mM FGFR protein in the syringe; 19 injections of 2 µL, 5 min apart. Conditions: both partners purified. On the technique in general: ITC needs no label: the signal is the heat of the interaction.

Square brackets hold non-standard residues; d marks the D form. Ends that are not written are not given here. Hyp = O=C(O)[C@@H]1C[C@@H](O)CN1; Aad = N[C@@H](CCCC(=O)O)C(=O)O; Cit = NC(=O)NCCC[C@H](N)C(=O)O; Nva = CCC[C@H](N)C(=O)O; Ac3c = NC1(C(=O)O)CC1

T1 sequence (P21802 22-377): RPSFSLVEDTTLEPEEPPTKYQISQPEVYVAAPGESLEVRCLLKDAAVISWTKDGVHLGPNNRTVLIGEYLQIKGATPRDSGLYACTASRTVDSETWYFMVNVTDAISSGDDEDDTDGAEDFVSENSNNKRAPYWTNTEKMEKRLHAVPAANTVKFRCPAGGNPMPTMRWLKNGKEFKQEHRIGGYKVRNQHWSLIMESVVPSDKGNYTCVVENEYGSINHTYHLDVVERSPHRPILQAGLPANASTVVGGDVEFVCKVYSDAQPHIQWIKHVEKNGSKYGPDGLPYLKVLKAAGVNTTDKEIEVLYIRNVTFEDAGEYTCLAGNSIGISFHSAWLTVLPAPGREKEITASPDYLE

As to `COc1cc2cc(c1Cl)N(C)C(=O)C[C@H](OC(=O)[C@H](C)N(C)C(=O)CCS)[C@]1(C)O[C@H]1[C@H](C)[C@@H]1C[C@@](O)(NC(=O)O1)[C@H](OC)/C=C/C=C(\C)C2` [DM1, reference compound], the “concentration that completely suppresses clone formation” value with MCF-7 cells was found to be 0.001 µg/mL. Moreover, the “tolerated concentrations in mice” value in series [1] was 1.0 to 1.5 mg/kg.
[Hyp][dL][Cit][dD][dN][dK][Ac3c][Nva][Aad] [LLC2B]: in series [2], the Ka was 1.04e+09 M⁻¹ and the Kd is 960 pM.

As a reminder, the Kd is a measure of binding affinity in units of concentration. Lower therefore signals a tighter complex.
